Data reported in patent US9975878B2, “Substituted triazine BMI-1 inhibitors” (PTC Therapeutics, Inc., priority 2013, dated 2018).

Each molecule was assayed on Bmi-1 protein (assay: Sandwich ELISA Assay: Bmi-1 protein level in HT-1080 cells treated with test compounds).
Type: cell-based
Experimental: Cell Seeding and Compound Treatment (Day 1):
HT-1080 cells were seeded at 8000 cells/well (50 μL) in 96-well tissue culture plates. After the cells became adherent (3-4 hours), 2× diluted stocks of test compounds in 50 μL DMEM containing 1% DMSO (final DMSO concentration was 0.5%) were added and the plates were incubated at 37° C. under 5% CO2 for 40-48 hours.
ELISA Plate First Antibody Preparation (Day 2):
The First Antibody (Millipore Mouse, monoclonal to mouse Bmi-1, clone F6, catalog #05-637) diluted to 2 μg/mL in PBS was added (100 μL) to each well of a Nunc MaxiSorp 96-well ELISA plate. The plate was covered with a plate seal and allowed to stand overnight.
Cell Lysate Preparation (Day 3):
Fresh Lysis buffer (1×) was prepared on the day of the assay as follows: 1 mM EDTA, 150 mM NaCl, 0.5% Triton-X 100, 10 mM NaF, 20 mM B-Glycerophosphate, 1 mM DTT (in PBS, pH 7.2-7.4) and HALT protease inhibitor cocktail (1×) (Pierce #78410).
Lysis Buffer (1×, 40 μL) was added to each well and the plate was shaken for 5-10 minutes on an orbital shaker to allow cell lysis, then diluent (1% BSA in PBS in 0.5% NP40) (100 μL) was added to each well.
A standard curve was prepared at the following Bmi-1 concentrations: 8000, 4000, 2000, 1000, 500, 250, 125 and 0 pg/mL. The Bmi-1 Recombinant Protein Standard (Novus Biologicals PCGF4 Recombinant Protein (P01), catalog # H00000648-P01) used to prepare the standard curve was stored at −80° C. On first thaw, the Recombinant Protein Standard was diluted to 10 μg/μL in Blocking Buffer (1% BSA in PBS; BSA: Fisher Scientific Catalog #1600-100). Aliquots were taken and refrozen at −80° C. The aliquots may be kept at 4° C. and reused after first thaw, but only within 1-2 weeks. The Recombinant Protein Standard contains a GST-fusion tag that appears at approximately 70 Kda on Western Blot.
The prepared ELISA plate was washed 3× with Wash Buffer (0.05% Tween-20 in PBS). The final wash was removed from the plate and the plate was blotted dry. Blocking Buffer (300 μL) (1% BSA in PBS) was added to each well. The plate was covered with a plate seal and incubated at room temperature for 1 hour. The blocked plate was washed 3× with Wash Buffer, then the final wash was removed and the plate was blotted dry. The previously prepared samples and standards were added (100 μL/well) and the plate was covered with a plate seal and incubated at 4° C. overnight.
The prepared ELISA plate was removed from incubation and allowed to stand at room temperature for 30 minutes, then washed and blotted dry. The Second Antibody (Cell Signaling Rabbit anti-Bmi-1, Cat# 2830) diluted to 1:600 in Blocking Buffer was added (100 μL) to each well, except as needed for background control wells. The plate was covered with a plate seal and incubated for 1.5 hrs at room temperature.
The ELISA plate was washed and blotted dry as previously described. The Third Antibody (Cell Signaling HRP conjugated anti-rabbit IgG (CellSignaling, Cat#:7074) diluted to 1:300 in Blocking Buffer was added (100 μL) to each well, except as needed for background control wells. The plate was incubated for 1 hr at room temperature.
The plate was washed and blotted dry, then a previously prepared TMB substrate (TMB substrate kit, Pierce catalog #34021) (prepared by mixing kit reagents 1:1) (100 μL) was added per well. The plate was incubated for 20-30 minutes at room temperature in the dark, then Stop Solution (2 M sulfuric acid in water) (50 μL) was added per well. The plates were read at OD450 (experimental) and OD570 (reference).
Molecule `CCc1nc2ccccc2n1-c1nc(N)nc(Nc2ccc(OC(F)F)cc2)n1` [Cpd 31, N-[4-(difluoromethoxy)phenyl]-6-(2-ethyl-1H-benzimidazol-1-yl)-1,3,5-triazine-2,4-diamine] has an EC50 of 10 to 100 nM.
`Cc1nc2ncc(Br)cc2n1-c1nc(N)nc(Nc2ccc(C(F)(F)F)cc2)n1` [Cpd 32, 6-(6-bromo-2-methyl-1H-imidazo[4,5-b]pyridin-1-yl)-N-[4-(trifluoromethyl)phenyl]-1,3,5-triazine-2,4-diamine] showed an EC50 of 10 to 100 nM.
With `Cc1nc2ncc(Cl)cc2n1-c1nc(N)nc(Nc2ccc(C(F)(F)F)cc2)n1` [Cpd 33, 6-(6-chloro-2-methyl-1H-imidazo[4,5-b]pyridin-1-yl)-N-[4-(trifluoromethyl)phenyl]-1,3,5-triazine-2,4-diamine] the EC50 was 10 to 100 nM.
Work on `Cc1nc2ncc(Br)cc2n1-c1nc(NCCO)nc(Nc2ccc(C(F)(F)F)cc2)n1` [Cpd 34, 2-{[4-(6-bromo-2-methyl-1H-imidazo[4,5-b]pyridin-1-yl)-6-{[4-(trifluoromethyl)phenyl]amino}-1,3,5-triazin-2-yl]amino}ethanol] yielded an EC50 of 100 to 3000 nM.
`Cc1nc2ncc(Cl)cc2n1-c1nc(NCCO)nc(Nc2ccc(C(F)(F)F)cc2)n1` [Cpd 35, 2-{[4-(6-chloro-2-methyl-1H-imidazo[4,5-b]pyridin-1-yl)-6-{[4-(trifluoromethyl)phenyl]amino}-1,3,5-triazin-2-yl]amino}ethanol] was tested, and the EC50 was 100 to 3000 nM.
Molecule `Nc1nc(Nc2ccc(C(F)(F)F)cc2)nc(-n2c(C3CC3)nc3ncc(F)cc32)n1` [Cpd 36, 6-(2-cyclopropyl-6-fluoro-1H-imidazo[4,5-b]pyridin-1-yl)-N-[4-(trifluoromethyl)phenyl]-1,3,5-triazine-2,4-diamine] has an EC50 of 100 to 3000 nM.
In the case of `CCc1nc2ccccc2n1-c1nc(N)nc(Nc2ccc(OC(F)F)c(F)c2)n1` [Cpd 37, N-[4-(difluoromethoxy)-3-fluorophenyl]-6-(2-ethyl-1H-benzimidazol-1-yl)-1,3,5-triazine-2,4-diamine], the EC50 is reported as 10 to 100 nM.
`Cc1nc2ncc(Br)cc2n1-c1nc(N)nc(Nc2ccc(OC(F)F)cc2)n1` [Cpd 38, 6-(6-bromo-2-methyl-1H-imidazo[4,5-b]pyridin-1-yl)-N-[4-(difluoromethoxy)phenyl]-1,3,5-triazine-2,4-diamine] was tested, and the EC50 was 10 to 100 nM.
For `Cc1nc2ncc(Br)cc2n1-c1nc(N)nc(Nc2ccc(OC(F)F)c(F)c2)n1` [Cpd 39, 6-(6-bromo-2-methyl-1H-imidazo[4,5-b]pyridin-1-yl)-N-[4-(difluoromethoxy)-3-fluorophenyl]-1,3,5-triazine-2,4-diamine], the EC50 was 10 to 100 nM.
`Cc1nc2ncc(Cl)cc2n1-c1nc(N)nc(Nc2ccc(OC(F)F)cc2)n1` [Cpd 40, 6-(6-chloro-2-methyl-1H-imidazo[4,5-b]pyridin-1-yl)-N-[4-(difluoromethoxy)phenyl]-1,3,5-triazine-2,4-diamine] showed an EC50 of 10 to 100 nM.
`Cc1nc2ncc(Cl)cc2n1-c1nc(N)nc(Nc2ccc(OC(F)F)c(F)c2)n1` [Cpd 41, 6-(6-chloro-2-methyl-1H-imidazo[4,5-b]pyridin-1-yl)-N-[4-(difluoromethoxy)-3-fluorophenyl]-1,3,5-triazine-2,4-diamine] showed an EC50 of 10 to 100 nM.
`Nc1nc(Nc2ccc(C(F)(F)F)cc2)nc(-n2c(C3CC3)nc3ccccc32)n1` [Cpd 42, 6-(2-cyclopropyl-1H-benzimidazol-1-yl)-N-[4-(trifluoromethyl)phenyl]-1,3,5-triazine-2,4-diamine] showed an EC50 of 10 to 100 nM.
`Nc1nc(Nc2ccc(OC(F)F)cc2)nc(-n2c(C3CC3)nc3ccccc32)n1` [Cpd 43, 6-(2-cyclopropyl-1H-benzimidazol-1-yl)-N-[4-(difluoromethoxy)phenyl]-1,3,5-triazine-2,4-diamine] gave an EC50 of 10 to 100 nM.
For `Nc1nc(Nc2ccc(OC(F)F)c(F)c2)nc(-n2c(C3CC3)nc3ccccc32)n1` [Cpd 44, 6-(2-cyclopropyl-1H-benzimidazol-1-yl)-N-[4-(difluoromethoxy)-3-fluorophenyl]-1,3,5-triazine-2,4-diamine], the EC50 was 10 to 100 nM.
Molecule `CCc1nc2c(F)cc(F)cc2n1-c1nc(N)nc(Nc2ccc(C(F)(F)F)cc2)n1` [Cpd 45, 6-(2-ethyl-4,6-difluoro-1H-benzimidazol-1-yl)-N-[4-(trifluoromethyl)phenyl]-1,3,5-triazine-2,4-diamine] has an EC50 of 10 to 100 nM.
With `Cc1nc2c(F)cc(F)cc2n1-c1nc(N)nc(Nc2ccc(C(F)(F)F)cc2)n1` [Cpd 46, 6-(4,6-difluoro-2-methyl-1H-benzimidazol-1-yl)-N-[4-(trifluoromethyl)phenyl]-1,3,5-triazine-2,4-diamine] the EC50 was 100 to 3000 nM.
Molecule `Cc1nc2c(F)cc(F)cc2n1-c1nc(N)nc(Nc2ccc(OC(F)F)cc2)n1` [Cpd 47, N-[4-(difluoromethoxy)phenyl]-6-(4,6-difluoro-2-methyl-1H-benzimidazol-1-yl)-1,3,5-triazine-2,4-diamine] has an EC50 of 10 to 100 nM.
In the case of `Cc1nc2c(F)cc(F)cc2n1-c1nc(N)nc(Nc2ccc(OC(F)F)c(F)c2)n1` [Cpd 48, N-[4-(difluoromethoxy)-3-fluorophenyl]-6-(4,6-difluoro-2-methyl-1H-benzimidazol-1-yl)-1,3,5-triazine-2,4-diamine], the EC50 is reported as 10 to 100 nM.
`CCc1nc2c(F)cc(F)cc2n1-c1nc(N)nc(Nc2ccc(OC(F)F)cc2)n1` [Cpd 49, N-[4-(difluoromethoxy)phenyl]-6-(2-ethyl-4,6-difluoro-1H-benzimidazol-1-yl)-1,3,5-triazine-2,4-diamine] was tested, and the EC50 was 10 to 100 nM.
`CCc1nc2c(F)cc(F)cc2n1-c1nc(N)nc(Nc2ccc(OC(F)F)c(F)c2)n1` [Cpd 50, N-[4-(difluoromethoxy)-3-fluorophenyl]-6-(2-ethyl-4,6-difluoro-1H-benzimidazol-1-yl)-1,3,5-triazine-2,4-diamine] was tested, and the EC50 was 10 to 100 nM.
`Cc1nc2ccccc2n1-c1nc(N)nc(Nc2ccc(C(F)(F)F)nc2)n1` [Cpd 51, 6-(2-methyl-1H-benzimidazol-1-yl)-N-[6-(trifluoromethyl)pyridin-3-yl]-1,3,5-triazine-2,4-diamine] gave an EC50 of 10 to 100 nM.
Work on `Cc1nc2cc(F)ccc2n1-c1nc(N)nc(Nc2ccc(C(F)(F)F)nc2)n1` [Cpd 52, 6-(5-fluoro-2-methyl-1H-benzimidazol-1-yl)-N-[6-(trifluoromethyl)pyridin-3-yl]-1,3,5-triazine-2,4-diamine] yielded an EC50 of 100 to 3000 nM.
With `Cc1nc2ccc(F)cc2n1-c1nc(N)nc(Nc2ccc(C(F)(F)F)nc2)n1` [Cpd 53, 6-(6-fluoro-2-methyl-1H-benzimidazol-1-yl)-N-[6-(trifluoromethyl)pyridin-3-yl]-1,3,5-triazine-2,4-diamine] the EC50 was 10 to 100 nM.
Molecule `Cc1nc2cc(F)ccc2n1-c1nc(N)nc(Nc2ccc(OC(F)F)c(F)c2)n1` [Cpd 54, N-[4-(difluoromethoxy)-3-fluorophenyl]-6-(5-fluoro-2-methyl-1H-benzimidazol-1-yl)-1,3,5-triazine-2,4-diamine] has an EC50 of 100 to 3000 nM.
With `CCc1nc2ccc(F)cc2n1-c1nc(N)nc(Nc2ccc(C(F)(F)F)cc2)n1` [Cpd 55, 6-(2-ethyl-6-fluoro-1H-benzimidazol-1-yl)-N-[4-(trifluoromethyl)phenyl]-1,3,5-triazine-2,4-diamine] the EC50 was 10 to 100 nM.
`CCc1nc2ccc(F)cc2n1-c1nc(N)nc(Nc2ccc(OC(F)F)cc2)n1` [Cpd 56, N-[4-(difluoromethoxy)phenyl]-6-(2-ethyl-6-fluoro-1H-benzimidazol-1-yl)-1,3,5-triazine-2,4-diamine] was tested, and the EC50 was 10 to 100 nM.
Work on `CCc1nc2ccc(F)cc2n1-c1nc(N)nc(Nc2ccc(OC(F)F)c(F)c2)n1` [Cpd 57, N-[4-(difluoromethoxy)-3-fluorophenyl]-6-(2-ethyl-6-fluoro-1H-benzimidazol-1-yl)-1,3,5-triazine-2,4-diamine] yielded an EC50 of 10 to 100 nM.
`CCc1nc2cc(F)ccc2n1-c1nc(N)nc(Nc2ccc(C(F)(F)F)cc2)n1` [Cpd 58, 6-(2-ethyl-5-fluoro-1H-benzimidazol-1-yl)-N-[4-(trifluoromethyl)phenyl]-1,3,5-triazine-2,4-diamine] gave an EC50 of 10 to 100 nM.
